In brackets after ≈: the same amount, converted by molar mass.
Experiments:
[1] = Cytotoxicity against African green monkey Vero cells infected with Herpes simplex virus 1 after 72 hrs by MTT assay; type: cell-based; conditions: chlorocebus sabaeus, read-out: TC50
Human alphaherpesvirus 1 = assay: Antiviral activity against Herpes simplex virus 1 infected in African green monkey Vero cells assessed as inhibition of virus-induced cytopathogenic effect by microscopic analysis; type: functional, organism-based; conditions: Human alphaherpesvirus 1, Vero
Influenza A virus H3N2 = assay: Antiviral activity against Influenza A virus H3N2 infected in African green monkey Vero cells assessed as inhibition of virus-induced cytopathogenic effect by microscopic analysis; type: functional, organism-based
[2] = (§1) Selectivity index, ratio of TC50 against African green monkey Vero cells infected with Herpes simplex virus 1 after 72 hrs by MTT assay to IC50 against Herpes simplex virus 1 infected in African green monkey Vero cells assessed as inhibition of virus-induced cytopathogenic effect by microscopic analysis; type: toxicity; conditions: read-out: Selectivity Index
[3] = as §1, with “Influenza A” for “Herpes simplex”, “H3N2” for “1”; type: toxicity; conditions: read-out: Selectivity Index
[4] = Cytotoxicity against African green monkey Vero cells infected with Human papillomavirus after 72 hrs by MTT assay; type: cell-based; conditions: chlorocebus sabaeus, read-out: TC50
[5] = Cytotoxicity against African green monkey Vero cells infected with Hepatitis C virus after 72 hrs by MTT assay; type: cell-based; conditions: chlorocebus sabaeus, read-out: TC50
Coxsackievirus B3 = assay: Antiviral activity against Coxsackievirus B3 infected in African green monkey Vero cells assessed as inhibition of virus-induced cytopathogenic effect by microscopic analysis; type: functional, organism-based; conditions: Enterovirus B
[6] = Cytotoxicity against African green monkey Vero cells infected with Coxsackievirus B3 after 72 hrs by MTT assay; type: cell-based; conditions: chlorocebus sabaeus, read-out: TC50
Human papillomavirus = assay: Antiviral activity against Human papillomavirus infected in African green monkey Vero cells assessed as inhibition of virus-induced cytopathogenic effect by microscopic analysis; type: functional, organism-based
[7] = Cytotoxicity against African green monkey Vero cells infected with Influenza A virus H3N2 after 72 hrs by MTT assay; type: cell-based; conditions: chlorocebus sabaeus, read-out: TC50
[8] = as §1, with “2” for “1”; type: toxicity; conditions: read-out: Selectivity Index
[9] = Selectivity index, ratio of TC50 against African green monkey Vero cells infected with Human papillomavirus after 72 hrs by MTT assay to IC50 against Human papillomavirus infected in African green monkey Vero cells assessed as inhibition of virus-induced cytopathogenic effect by microscopic analysis; type: toxicity; conditions: read-out: Selectivity Index
[10] = Selectivity index, ratio of TC50 against African green monkey Vero cells infected with Coxsackievirus B3 after 72 hrs by MTT assay to IC50 against Coxsackievirus B3 infected in African green monkey Vero cells assessed as inhibition of virus-induced cytopathogenic effect by microscopic analysis; type: toxicity; conditions: read-out: Selectivity Index
[11] = Cytotoxicity against African green monkey Vero cells infected with Hepatitis B virus after 72 hrs by MTT assay; type: cell-based; conditions: chlorocebus sabaeus, read-out: TC50
[12] = Cytotoxicity against African green monkey Vero cells infected with Herpes simplex virus 2 after 72 hrs by MTT assay; type: cell-based; conditions: chlorocebus sabaeus, read-out: TC50
[13] = Selectivity index, ratio of TC50 against African green monkey Vero cells infected with Hepatitis B virus after 72 hrs by MTT assay to IC50 against Hepatitis B virus infected in African green monkey Vero cells assessed as inhibition of virus-induced cytopathogenic effect by microscopic analysis; type: toxicity; conditions: read-out: Selectivity Index
[14] = Selectivity index, ratio of TC50 against African green monkey Vero cells infected with Hepatitis C virus after 72 hrs by MTT assay to IC50 against Hepatitis C virus infected in African green monkey Vero cells assessed as inhibition of virus-induced cytopathogenic effect by microscopic analysis; type: toxicity; conditions: read-out: Selectivity Index
Human alphaherpesvirus 2 = assay: Antiviral activity against Herpes simplex virus 2 infected in African green monkey Vero cells assessed as inhibition of virus-induced cytopathogenic effect by microscopic analysis; type: functional, organism-based; conditions: Human alphaherpesvirus 2, Vero
Hepatitis C virus = assay: Antiviral activity against Hepatitis C virus infected in African green monkey Vero cells assessed as inhibition of virus-induced cytopathogenic effect by microscopic analysis; type: functional, organism-based, Hepacivirus hominis

| Compound | CC50 at 72 h [1] [µg/mL] | IC50 (Human alphaherpesvirus 1) [µg/mL] | IC50 (Influenza A virus H3N2) [µg/mL] | selectivity ratio at 72 h [2] | other results |
| --- | --- | --- | --- | --- | --- |
| Nc1nc(=O)n([C@@H]2O[C@H](CO)[C@@H](O)[C@H]2O)c2nc[nH]c(=O)c12 | 2.97 (≈ 9.54 µM) | > 0.79 | > 1.37 |  |  |
| C[C@H]1O[C@@H](n2c(=O)nc(N)c3c(=O)[nH]c(N)nc32)[C@H](O)[C@@H]1O | 8.56 (≈ 27.6 µM) | 2.08 (≈ 6.7 µM) | > 4.12 | 4.1 |  |
| Nc1nc2[nH]c(=O)nc(N)c2c(=O)[nH]1 | 16 (≈ 82.6 µM) | > 9.26 | 27.8 (≈ 143 µM) |  |  |
| O/N=C/c1c(Cl)ncnc1NCc1ccc(Br)cc1 | 12.8 (≈ 37.6 µM) | 0.82 (≈ 2.4 µM) |  | 15.7 |  |
| Nc1ncn([C@@H]2O[C@H](CO)[C@@H](O)[C@H]2O)c2nc(=O)[nH]c(=O)c1-2 | 577 (≈ 1850 µM) | > 333 | > 333 |  |  |
| O/N=C/c1c(Cl)ncnc1NCc1ccccc1 | 7.41 (≈ 28.2 µM) | 1.92 (≈ 7.31 µM) |  | 3.86 |  |
| Nc1ncn([C@H]2O[C@@H](CO)[C@H](O)[C@@H]2O)c2nc(=O)[nH]c(=O)c1-2 | 577 (≈ 1850 µM) | 333 (≈ 1070 µM) | > 333 | 1.7 |  |
| COc1ccc(Cn2c(=O)nc(N)c3c(OC)nc(N)nc32)cc1 | 55.6 (≈ 169 µM) | 12.9 (≈ 39.3 µM) | 18.5 (≈ 56.4 µM) | 4.3 | selectivity ratio at 72 h [3]: 3.3 |
| COc1nc(N)nc2[nH]c(=O)nc(N)c12 | 48.1 (≈ 231 µM) | 7.31 (≈ 35.1 µM) | > 9.26 | 6.6 |  |
| CC(C)(C)c1ccc(CNc2ncnc(Cl)c2/C=N\O)cc1 | 1.43 (≈ 4.49 µM) | 0.48 (≈ 1.51 µM) |  | 2.97 |  |
| O/N=C/c1c(Cl)ncnc1NCc1ccc(Cl)cc1 | 3.18 (≈ 10.7 µM) | 0.57 (≈ 1.92 µM) |  | 5.58 |  |
| Nc1ccc(CNc2ncnc(Cl)c2/C=N/O)cc1 | 2.47 (≈ 8.89 µM) | 0.47 (≈ 1.69 µM) |  | 5.26 |  |
| Cc1ccc(CNc2ncnc(Cl)c2/C=N/O)cc1 | 1.11 (≈ 4.01 µM) | 0.21 (≈ 0.759 µM) |  | 5.29 |  |
| COc1ccccc1CCNc1ncnc(Cl)c1/C=N/O | 80.1 (≈ 261 µM) | 3.56 (≈ 11.6 µM) |  | 22.5 |  |
| COc1ccccc1Nc1ncnc(Cl)c1/C=N/O | 8.9 (≈ 31.9 µM) | 1.43 (≈ 5.13 µM) |  | 6.22 |  |
| Nc1nc2c(c(N)nc(=O)n2[C@@H]2O[C@H](CO)[C@@H](O)[C@H]2O)c(=O)[nH]1 | 144 (≈ 442 µM) | > 83.3 | 9.26 (≈ 28.4 µM) |  | selectivity ratio at 72 h [3]: 13 |
| COc1ccc(CNc2ncnc(Cl)c2/C=N/O)cc1 | 2.47 (≈ 8.44 µM) | 0.35 (≈ 1.2 µM) |  | 7.06 |  |

| Compound | CC50 at 72 h [1] [µg/mL] | IC50 (Human alphaherpesvirus 1) [µg/mL] | IC50 (Influenza A virus H3N2) [µg/mL] | selectivity ratio at 72 h [2] | other results |
| --- | --- | --- | --- | --- | --- |
| Nc1ncnc2c1c(=O)[nH]c(=O)n2[C@H]1O[C@@H](CO)[C@H](O)[C@@H]1O | 40.5 (≈ 130 µM) | > 30.2 | > 33.3 |  |  |
| COc1ccccc1CCCNc1ncnc(Cl)c1/C=N/O | 1.29 (≈ 4.02 µM) | > 0.19 |  |  |  |
| CC(C)(C)c1ccc(CNc2ncnc(Cl)c2/C=N/O)cc1 | 0.26 (≈ 0.816 µM) | 0.05 (≈ 0.157 µM) | 0.27 (≈ 0.847 µM) | 5.2 | CC50 at 72 h [4]: 9.8 µg/mL (≈ 30.7 µM); CC50 at 72 h [5]: 19.3 µg/mL (≈ 60.5 µM); IC50 (Coxsackievirus B3): 0.12 µg/mL (≈ 0.376 µM); CC50 at 72 h [6]: 0.64 µg/mL (≈ 2.01 µM); IC50 (Human papillomavirus): 5.6 µg/mL (≈ 17.6 µM); CC50 at 72 h [7]: 0.48 µg/mL (≈ 1.51 µM); selectivity ratio at 72 h [8]: 13.2; selectivity ratio at 72 h [9]: 1.75; selectivity ratio at 72 h [10]: 4.92; CC50 at 72 h [11]: 0.0397 µg/mL (≈ 0.124 µM); selectivity ratio at 72 h [3]: 1.78; CC50 at 72 h [12]: 0.53 µg/mL (≈ 1.66 µM); selectivity ratio at 72 h [13]: 17.9; selectivity ratio at 72 h [14]: 17.8; IC50 (Human alphaherpesvirus 2): 0.04 µg/mL (≈ 0.125 µM); IC50 (Hepatitis C virus): 1.15 µg/mL (≈ 3.61 µM) |
| Nc1nc2c(c(N)nc(=O)n2[C@H]2C[C@H](O)[C@@H](CO)O2)c(=O)[nH]1 | 347 (≈ 1120 µM) | > 167 | > 250 |  |  |
| Nc1ncn([C@H]2C[C@H](O)[C@@H](CO)O2)c2nc(=O)[nH]c(=O)c1-2 | 577 (≈ 1960 µM) | > 333 | > 111 |  |  |
| COc1ccccc1CNc1ncnc(Cl)c1/C=N/O | 0.86 (≈ 2.94 µM) | 0.04 (≈ 0.137 µM) | 0.27 (≈ 0.922 µM) | 21.5 | CC50 at 72 h [4]: 13.5 µg/mL (≈ 46.1 µM); CC50 at 72 h [5]: 32.4 µg/mL (≈ 111 µM); IC50 (Coxsackievirus B3): 0.05 µg/mL (≈ 0.171 µM); CC50 at 72 h [6]: 0.86 µg/mL (≈ 2.94 µM); IC50 (Human papillomavirus): 7.9 µg/mL (≈ 27 µM); CC50 at 72 h [7]: 1.19 µg/mL (≈ 4.07 µM); selectivity ratio at 72 h [8]: 3.83; selectivity ratio at 72 h [9]: 1.71; selectivity ratio at 72 h [10]: 17.2; CC50 at 72 h [11]: 0.063 µg/mL (≈ 0.215 µM); selectivity ratio at 72 h [3]: 4.41; CC50 at 72 h [12]: 1.11 µg/mL (≈ 3.79 µM); selectivity ratio at 72 h [13]: 25.3; selectivity ratio at 72 h [14]: 27.2; IC50 (Human alphaherpesvirus 2): 0.29 µg/mL (≈ 0.991 µM); IC50 (Hepatitis C virus): 1.19 µg/mL (≈ 4.07 µM) |
| CO/N=C\c1c(Cl)ncnc1NCc1ccccc1OC | 80.1 (≈ 261 µM) | 14.4 (≈ 46.8 µM) |  | 5.58 |  |
| CO/N=C/c1c(Cl)ncnc1NCc1ccccc1OC | 38.5 (≈ 126 µM) | 4.28 (≈ 14 µM) |  | 9 |  |
| Nc1ncnc2c1c(=O)[nH]c(=O)n2[C@@H]1O[C@H](CO)[C@@H](O)[C@@H]1O | > 250 | > 83.3 | > 333 |  |  |
| C[C@H]1O[C@@H](n2cnc(N)c3c(=O)[nH]c(=O)nc2-3)[C@H](O)[C@@H]1O | 500 (≈ 1690 µM) | 167 (≈ 564 µM) | 167 (≈ 564 µM) | 3 | selectivity ratio at 72 h [3]: 3 |
| O/N=C/c1c(Cl)ncnc1NCc1ccc(F)cc1 | 12.8 (≈ 45.7 µM) | > 2.47 |  |  |  |
| Nc1ncn([C@@H]2O[C@H](CO)[C@@H](O)[C@@H]2O)c2nc(=O)[nH]c(=O)c1-2 | 1.78 (≈ 5.72 µM) | > 0.59 | > 0.46 |  |  |
| COc1ccc(Cn2c(=O)nc(N)c3c(=O)[nH]c(N)nc32)cc1 | 18.5 (≈ 58.9 µM) | > 6.17 | > 55.6 |  |  |
| COc1cccc(CNc2ncnc(Cl)c2/C=N/O)c1 | 2.31 (≈ 7.89 µM) | 0.48 (≈ 1.64 µM) |  | 4.81 |  |
| Nc1ncn([C@@H]2O[C@H](CO)C[C@H]2O)c2nc(=O)[nH]c(=O)c1-2 | 347 (≈ 1170 µM) | 75.9 (≈ 257 µM) | > 83.3 | 4.6 |  |
| COc1ccccc1CNc1ncnc(Cl)c1/C=N\O | 10.7 (≈ 36.5 µM) | 4.79 (≈ 16.4 µM) |  | 2.23 |  |
| NC(=O)c1ncn([C@@H]2O[C@H](CO)[C@@H](O)[C@H]2O)n1 [RIBAVIRIN] | > 200 | 38.5 (≈ 158 µM) |  | > 5.2 |  |
